Assay results published in patent US20160287589A1, “SUBSTITUTED-IMIDAZOPYRIDAZINES” (BAYER PHARMA AKTIENGESELLSCHAFT, priority 2013, published 2016).

How the values were obtained:
MKNK1 [1] = molecular target: T1, MKNK1 (Homo sapiens, UniProt Q9BUB5, T385D); assay: MKNK1 kinase high ATP assay (TR-FRET-based); type: biochemical; conditions: Table 2a; 2 mM ATP, 15 min preincubation
T1 construct: GST (N); purchased Carna Biosciences 02-145; host or cells: insect cells (baculovirus expression system)
Description: MKNK1 Kinase High ATP Assay
MKNK1-inhibitory activity at high ATP of compounds of the present invention after their preincubation with MKNK1 was quantified employing the TR-FRET-based MKNK1 high ATP assay as described in the following paragraphs.
(§1) A recombinant fusion protein of Glutathione-S-Transferase (GST, N-terminally) and human full-length MKNK1 (amino acids 1-424 and T344D of accession number BAA 19885.1), expressed in insect cells using baculovirus expression system and purified via glutathione sepharose affinity chromatography, was purchased from Carna Biosciences (product no 02-145) and used as enzyme. As substrate for the kinase reaction the biotinylated peptide biotin-Ahx-IKKRKLTRRKSLKG (C-terminus in amide form) was used, which can be purchased e.g. from the company Biosyntan (Berlin-Buch, Germany).
(§2) For the assay 50 nL of a 100 fold concentrated solution of the test compound in DMSO was pipetted into a black low volume 384 well microtiter plate (Greiner Bio-One, Frickenhausen, Germany), 2 μL of a solution of MKNK1 in aqueous assay buffer [50 mM HEPES pH 7.5, 5 mM magnesium chloride, 1.0 mM dithiothreitol, 0.005% (v/v) Nonidet-P40 (Sigma)] was added and the mixture was incubated for 15 min at 22° C. to allow pre-binding of the test compounds to the enzyme before the start of the kinase reaction. Then the kinase reaction was started by the addition of 3 μL of a solution of adenosine-tri-phosphate (ATP, 3.3 mM=>final conc. in the 5 μL assay volume is 2 mM) and substrate (0.1 μM=>final conc. in the 5 μL assay volume is 0.06 μM) in assay buffer and the resulting mixture was incubated for a reaction time of 30 min at 22° C. The concentration of MKNK1 was adjusted depending of the activity of the enzyme lot and was chosen appropriate to have the assay in the linear range, typical concentrations were in the range of 0.003 μg/mL. The reaction was stopped by the addition of 5 μL of a solution of TR-FRET detection reagents (5 nM streptavidine-XL665 [Cisbio Bioassays, Codolet, France] and 1 nM anti-ribosomal protein S6 (pSer236)-antibody from Invitrogen [#44921G] and 1 nM LANCE EU-W1024 labeled ProteinG [Perkin-Elmer, product no. AD0071]) in an aqueous EDTA-solution (100 mM EDTA, 0.1% (w/v) bovine serum albumin in 50 mM HEPES pH 7.5).
(§3) The resulting mixture was incubated for 1 h at 22° C. to allow the formation of complex between the phosphorylated biotinylated peptide and the detection reagents. Subsequently the amount of phosphorylated substrate was evaluated by measurement of the resonance energy transfer from the Eu-chelate to the streptavidine-XL. Therefore, the fluorescence emissions at 620 nm and 665 nm after excitation at 350 nm were measured in a TR-FRET reader, e.g. a Rubystar (BMG Labtechnologies, Offenburg, Germany) or a Viewlux (Perkin-Elmer). The ratio of the emissions at 665 nm and at […] was taken as the measure for the amount of phosphorylated substrate. The data were normalised (enzyme reaction without inhibitor=0% inhibition, all other assay components but no enzyme=100% inhibition).

MKNK1 [2] = molecular target: T1, MKNK1; assay: MKNK1 kinase assay (MKNK1 TR-FRET assay); type: biochemical; conditions: Table 1a; 10 μM ATP, 15 min preincubation
From the text: MKNK1-inhibitory activity of compounds of the present invention was quantified employing the MKNK1 TR-FRET assay as described in the following paragraphs.
as §1, with “human full-lengt” for “human full-length”, “was used” for “was used,”, “e.g. form” for “e.g. from”
as §2, with “Then the kinase reaction was started by the addition of 3 μL of a solution of adenosine-tri-phosphate (ATP, 3.3 mM=>final conc. in the 5 μL assay volume is 2 mM) and substrate (0.1 μM=>final conc. in the 5 μL assay volume is 0.06 μM) in assay buffer and the resulting mixture was incubated for a reaction time of 30 min at 22° C.” left out, “[…].” for “0.003 μg/mL.”
as §3

T1 sequence (Q9BUB5 1-424 isoform Q9BUB5-2 T344D): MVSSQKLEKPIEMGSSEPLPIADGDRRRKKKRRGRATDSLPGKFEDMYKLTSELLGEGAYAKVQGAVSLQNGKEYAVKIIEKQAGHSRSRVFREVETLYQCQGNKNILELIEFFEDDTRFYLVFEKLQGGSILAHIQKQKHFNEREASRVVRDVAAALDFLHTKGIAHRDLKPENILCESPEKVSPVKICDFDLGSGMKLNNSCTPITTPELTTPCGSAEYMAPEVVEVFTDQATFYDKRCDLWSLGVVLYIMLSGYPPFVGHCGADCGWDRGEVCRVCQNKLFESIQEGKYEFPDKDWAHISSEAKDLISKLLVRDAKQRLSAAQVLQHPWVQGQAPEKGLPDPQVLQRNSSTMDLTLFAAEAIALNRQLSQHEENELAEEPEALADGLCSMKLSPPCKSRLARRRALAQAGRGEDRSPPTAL

Compound	IC50 (MKNK1 [1]) [nM]	IC50 (MKNK1 [2]) [nM]
O=C1CNC[C@@H](COc2ccc3ncc(-c4cc5ccccc5o4)n3n2)N1 [Example I-29, (6S)-6-({[3-(1-Benzofuran-2-yl)imidazo[1,2-b]pyridazin-6-yl]oxy}methyl)-piperazin-2-one]	34.1	13.1
COCC(=O)NC[C@H](Oc1ccc2ncc(-c3cc4ccccc4o3)n2n1)c1cccnc1 [Example I-30, N-[(2R)-2-{[3-(1-Benzofuran-2-yl)imidazo[1,2-b]pyridazin-6-yl]oxy}-2-(pyridin-3-yl)ethyl]-2-methoxyacetamide]	34.8	10.3
CC(=O)N1CCC[C@H]1CCOc1ccc2ncc(-c3cc4cc(Cl)ccc4o3)n2n1 [Example I-31, 1-[(2S)-2-(2-{[3-(5-Chloro-1-benzofuran-2-yl)imidazo[1,2-b]pyridazin-6-yl]oxy}ethyl)pyrrolidin-1-yl]ethanone]	35.2	16.7
CN1C(=O)CC[C@H]1COc1ccc2ncc(-c3cc4ccccc4o3)n2n1 [Example I-32, (5S)-5-({[3-(1-Benzofuran-2-yl)imidazo[1,2-b]pyridazin-6-yl]oxy}methyl)-1-methylpyrrolidin-2-one]	39.8	13.7
COc1ccc2oc(-c3cnc4ccc(OCCN5CCNC5=O)nn34)cc2c1 [Example I-33, 1-(2-{[3-(5-Methoxy-1-benzofuran-2-yl)imidazo[1,2-b]pyridazin-6-yl]oxy}ethyl)imidazolidin-2-one]	40.5	15.5
CC(=O)NC(COc1ccc2ncc(-c3cc4ccccc4o3)n2n1)c1cccnc1 (stereo not shown) [Example I-34, N-[2-{[3-(1-Benzofuran-2-yl)imidazo[1,2-b]pyridazin-6-yl]oxy}-1-(pyridin-3-yl)ethyl]acetamide]	45.1	16.4
CC(=O)NC[C@H](Oc1ccc2ncc(-c3cc4ccccc4o3)n2n1)c1cccnc1 [Example I-35, N-[(2R)-2-{[3-(1-Benzofuran-2-yl)imidazo[1,2-b]pyridazin-6-yl]oxy}-2-(pyridin-3-yl)ethyl]acetamide]	47.8	17.9
CN(C)C(=O)COc1ccc2ncc(-c3cc4ccccc4o3)n2n1 [Example I-36, 2-{[3-(1-Benzofuran-2-yl)imidazo[1,2-b]pyridazin-6-yl]oxy}-N,N-dimethyl-acetamide]	56.2	15.1
CC(C)(C)NC(=O)COc1ccc2ncc(-c3cc4ccccc4o3)n2n1 [Example I-37, 2-{[3-(1-Benzofuran-2-yl)imidazo[1,2-b]pyridazin-6-yl]oxy}-N-tert-butyl-acetamide]	70	17
O=C1NCCC1Oc1ccc2ncc(-c3cc4ccccc4o3)n2n1 (stereo not shown) [Example I-38, 3-{[3-(1-Benzofuran-2-yl)imidazo[1,2-b]pyridazin-6-yl]oxy}pyrrolidin-2-one]	71.7	64
NC(=O)C(Oc1ccc2ncc(-c3cc4ccccc4o3)n2n1)c1cccnc1 (stereo not shown) [Example I-39, 2-{[3-(1-Benzofuran-2-yl)imidazo[1,2-b]pyridazin-6-yl]oxy}-2-(pyridin-3-yl)acetamide]	77.7	55.2
CC(C)(C)C(=O)N1CCC[C@H]1CCOc1ccc2ncc(-c3cc4cc(Cl)ccc4o3)n2n1 [Example I-40, 1-[(2S)-2-(2-{[3-(5-Chloro-1-benzofuran-2-yl)imidazo[1,2-b]pyridazin-6-yl]-oxy}ethyl)pyrrolidin-1-yl]-2,2-dimethylpropan-1-one]	76.4	26

The next compounds have a lower IC50 (MKNK1 [1]) than those just listed; values first:

IC50 (MKNK1 [1]) [nM]	IC50 (MKNK1 [2]) [nM]	Compound
13.8	7.1	O=C1NCCN1CCOc1ccc2ncc(-c3cc4ccccc4o3)n2n1 [Example I-18, 1-(2-{[3-(1-Benzofuran-2-yl)imidazo[1,2-b]pyridazin-6-yl]oxy}ethyl)-imidazolidin-2-one]
15.4	4.5	COc1cccc2oc(-c3cnc4ccc(OC[C@@H]5CCC(=O)N5)nn34)cc12 [Example I-19, (5S)-5-({[3-(4-Methoxy-1-benzofuran-2-yl)imidazo[1,2-b]pyridazin-6-yl]oxy}-methyl)pyrrolidin-2-one]
15.5	7.7	COc1cccc2oc(-c3cnc4ccc(OC[C@H]5CN(C(=O)C(F)(F)F)CCO5)nn34)cc12 [Example I-20, 2,2,2-Trifluoro-1-[(2R)-2-({[3-(4-methoxy-1-benzofuran-2-yl)imidazo[1,2-b]-pyridazin-6-yl]oxy}methyl)morpholin-4-yl]ethanone]
17.7	6.6	COc1cccc2oc(-c3cnc4ccc(OC[C@H]5CN(C(=O)C(C)(C)C)CCO5)nn34)cc12 [Example I-21, 1-[(2R)-2-({[3-(4-Methoxy-1-benzofuran-2-yl)imidazo[1,2-b]pyridazin-6-yl]-oxy}methyl)morpholin-4-yl]-2,2-dimethylpropan-1-one]
18.6	12.6	O=C1CCCN1CCCOc1ccc2ncc(-c3cc4ccccc4o3)n2n1 [Example I-22, 1-(3-{[3-(1-Benzofuran-2-yl)imidazo[1,2-b]pyridazin-6-yl]oxy}propyl)pyrrolidin-2-one]
18.8	15.7	O=C(N[C@H]1C[C@H](Oc2ccc3ncc(-c4cc5ccccc5o4)n3n2)C1)C(F)(F)F [Example I-23, N-(trans-3-{[3-(1-Benzofuran-2-yl)imidazo[1,2-b]pyridazin-6-yl]oxy}cyclobutyl)-2,2,2-trifluoroacetamide]
20.7	12.5	NC(=O)COc1ccc2ncc(-c3cc4ccccc4o3)n2n1 [Example I-24, 2-{[3-(1-Benzofuran-2-yl)imidazo[1,2-b]pyridazin-6-yl]oxy}acetamide]
20.8	4.7	CC(Oc1ccc2ncc(-c3cc4ccccc4o3)n2n1)C(N)=O (stereo not shown) [Example I-25, 2-{[3-(1-Benzofuran-2-yl)imidazo[1,2-b]pyridazin-6-yl]oxy}propanamide]
23	9	O=C1CCC(CCOc2ccc3ncc(-c4cc5ccccc5o4)n3n2)N1 (stereo not shown) [Example I-26, 5-(2-{[3-(1-Benzofuran-2-yl)imidazo[1,2-b]pyridazin-6-yl]oxy}ethyl)pyrrolidin-2-one]
23.5	7.3	CC(=O)N1CCOC(COc2ccc3ncc(-c4cc5ccccc5o4)n3n2)C1 (stereo not shown) [Example I-27, 1-[2-({[3-(1-Benzofuran-2-yl)imidazo[1,2-b]pyridazin-6-yl]oxy}methyl)-morpholin-4-yl]ethanone]
29.8	9.1	CC(=O)NCCOc1ccc2ncc(-c3cc4ccccc4o3)n2n1 [Example I-28, N-(2-{[3-(1-Benzofuran-2-yl)imidazo[1,2-b]pyridazin-6-yl]oxy}ethyl)acetamide]
